Experimental data published in patent publication US20130224126A1, “Oral Care Product and Methods of Use and Manufacture Thereof” (Colgate-Palmolive Company, priority 2010, published 2013).

Tested on: bacteria/yeast and mold
Test: Antimicrobial Preservation Effectiveness Test (micro robustness), double challenge test
Type: cell-based
Settings: in the mouthwash formulations, separately or in combination
Description: The Antimicrobial Preservation Effectiveness Test is used to determine the antimicrobial preservation effectiveness of water-based product formulations by means of a double challenge test. Products are developed to withstand microbial challenges introduced by normal consumer use. The test is run on an aged sample (13 weeks, 40° C.). The test uses two pools of microorganisms: bacteria/yeast and mold. The product is challenged at a 1% level at day 0 and at day 7. Reduction of the inoculum is monitored over a 28 day period. The following are the acceptance criteria for mouth wash formulas. • Bacteria and yeast must show a 99.9% reduction (3 logs) of the bacterial inoculum as determined by plate count on day 7 following each inoculation. No increase after day 7 of the second inoculation and for the remainder of the test within normal variation of the data. • Mold must show a 90.0% reduction (1 log) of the mold inoculum as determined by the plate count on day 14 following the second inoculation (day 21). No increase from day 14 to day 21 of the second inoculation of the test within normal variation of the data.

| Structure (SMILES) | microbial control |
| --- | --- |
| OCc1ccccc1 [Benzyl alcohol, benzyl alcohol] | acceptable |
| Cn1sccc1=O [MIT, methylisothiazolinone] | acceptable |
